Measurements reported in patent US10829473B2, “Modulators of the cystic fibrosis transmembrane conductance regulator protein and methods of use” (AbbVie Overseas S.Á.R.L., priority 2017, dated 2020).
Where two headings read alike, the source gives them in different places. Marks after values point to notes of the source that are not given here.

Biological target: T1, F508delCFTR (Homo sapiens, UniProt P13569, DEL508-508)
T1 construct: expressed in transfected cells; host or cells: CFBE41o- human lung derived epithelial cells (CFBE41o-F508delCFTR-HRP), doxycycline-inducible
T1 sequence (P13569 with tags, fused parts or gaps DEL508-508): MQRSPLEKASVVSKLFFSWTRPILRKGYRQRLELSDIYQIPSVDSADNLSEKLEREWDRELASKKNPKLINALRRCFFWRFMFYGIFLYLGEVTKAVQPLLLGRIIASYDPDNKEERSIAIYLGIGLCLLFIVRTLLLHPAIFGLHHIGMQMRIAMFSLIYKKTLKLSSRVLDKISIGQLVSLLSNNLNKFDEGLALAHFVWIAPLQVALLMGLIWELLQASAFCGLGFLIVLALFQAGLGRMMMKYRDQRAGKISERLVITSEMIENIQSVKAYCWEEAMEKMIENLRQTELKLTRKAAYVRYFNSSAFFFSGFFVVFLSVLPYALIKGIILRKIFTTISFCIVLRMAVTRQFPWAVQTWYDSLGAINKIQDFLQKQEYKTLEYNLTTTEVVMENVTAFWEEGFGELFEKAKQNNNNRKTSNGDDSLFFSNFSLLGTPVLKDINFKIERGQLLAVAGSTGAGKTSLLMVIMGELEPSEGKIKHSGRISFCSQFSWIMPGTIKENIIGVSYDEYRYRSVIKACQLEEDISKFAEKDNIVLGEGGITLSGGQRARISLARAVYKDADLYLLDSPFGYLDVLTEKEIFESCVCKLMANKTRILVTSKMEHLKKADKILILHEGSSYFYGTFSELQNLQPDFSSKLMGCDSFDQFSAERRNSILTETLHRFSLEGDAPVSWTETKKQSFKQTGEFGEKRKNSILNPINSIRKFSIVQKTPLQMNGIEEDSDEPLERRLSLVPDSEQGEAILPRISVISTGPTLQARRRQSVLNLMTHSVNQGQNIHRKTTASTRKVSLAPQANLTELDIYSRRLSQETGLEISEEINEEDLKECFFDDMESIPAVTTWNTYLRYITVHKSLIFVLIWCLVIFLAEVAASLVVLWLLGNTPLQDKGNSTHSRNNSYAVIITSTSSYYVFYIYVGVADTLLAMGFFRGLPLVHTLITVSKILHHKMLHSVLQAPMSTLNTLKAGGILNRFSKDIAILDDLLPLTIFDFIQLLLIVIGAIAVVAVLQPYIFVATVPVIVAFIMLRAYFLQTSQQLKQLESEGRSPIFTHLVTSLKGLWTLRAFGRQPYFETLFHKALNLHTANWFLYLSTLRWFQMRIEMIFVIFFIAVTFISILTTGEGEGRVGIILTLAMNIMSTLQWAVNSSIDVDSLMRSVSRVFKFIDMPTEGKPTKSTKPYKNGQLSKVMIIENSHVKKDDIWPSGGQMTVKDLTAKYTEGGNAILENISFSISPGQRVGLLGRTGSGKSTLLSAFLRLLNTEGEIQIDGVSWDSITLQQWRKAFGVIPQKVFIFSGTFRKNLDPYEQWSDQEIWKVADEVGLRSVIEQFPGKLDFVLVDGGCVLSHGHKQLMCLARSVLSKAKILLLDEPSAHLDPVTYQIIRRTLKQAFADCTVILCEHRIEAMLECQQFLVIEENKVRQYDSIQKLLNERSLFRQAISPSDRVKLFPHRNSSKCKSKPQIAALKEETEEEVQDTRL
Test: Cell Surface Expression-Horse Radish Peroxidase (CSE-HRP) Assay;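 on EC50 (with co-corrector): co-corrector chromenyl benzoic acid corrector at 2 or 3 µM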;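 on Maximum % activity (without co-corrector): % of on-plate positive control chromenyl benzoic acid corrector at 2 or 3 µM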
Assay type: cell-based
Conditions: for Maximum % activity (with co-corrector) / Emax: maximum at any tested concentration; for Emax: read-out: Maximum % activity (without co-corrector)
Method in brief: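 Corrector compounds were given as 8-point 3-fold series from 20 or 30 μM, with or without a 2 μM co-corrector, for 18-24 h at 33 °C. Surface HRP was read by luminol luminescence as % of positive control; variable-Hill-slope sigmoidal fitting gave EC50 from triplicate plates.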

[1] = test compound with co-corrector
[2] = test compound with co-corrector, read-out: EC50 (with co-corrector)
[3] = test compound without co-corrector
[4] = test compound without co-corrector, read-out: EC50 (without co-corrector)
[5] = test compound alone, without co-corrector, read-out: EC50 (without co-corrector)
[6] = with co-corrector, read-out: EC50 (with co-corrector)

CCc1ncc(OC(C)C)cc1C1(C(=O)NS(=O)(=O)c2cccc3ncccc23)CC1 [GII-16, 1-{2-ethyl-5-[(propan-2-yl)oxy]pyridin-3-yl}-N-(quinoline-5-sulfonyl)cyclopropane-1-carboxamide]
Maximum % activity (with co-corrector) [1]: ++ (≥150 and <350)
EC50 [2]: 3 to 10 µM
EC50 (without co-corrector) [3]: ++^a
Emax [3]: 50 to 150%

O=C(NS(=O)(=O)c1cccc2ncccc12)C1(c2cc(C3CC3)cnc2N2CCOCC2)CC1 [GIII-25]
EC50 (with co-corrector) [1]: ++^a
Maximum % activity (with co-corrector) [1]: ++ (≥150 and <350)
EC50 (without co-corrector) [3]: ++^a
Emax [3]: 50 to 150%

Cc1ccc(C2(C(=O)NS(=O)(=O)c3cccc4[nH]ccc34)CC2)c(OC(C)C)n1 [Example GI-82, N-(1H-indole-4-sulfonyl)-1-{6-methyl-2-[(propan-2-yl)oxy]pyridin-3-yl}cyclopropane-1-carboxamide]
Maximum % activity (with co-corrector) [1]: +++ (≥350)
EC50 [2]: < 3 µM
Emax [3]: > 150%
EC50 [4]: < 3 µM

O=C(NS(=O)(=O)c1cccc2ncccc12)C1(c2ncc(C(F)(F)F)cc2Cl)CC1 [GIII-1]
EC50 (with co-corrector) [1]: ++^a
Maximum % activity (with co-corrector) [1]: ++ (≥150 and <350)
EC50 (without co-corrector) [3]: ++^a
Emax [3]: < 50%

CC(C)Oc1cc(C2CCC2)cnc1C1(C(=O)NS(=O)(=O)c2cccc3ncccc23)CC1 [GII-27, 1-{5-cyclobutyl-3-[(propan-2-yl)oxy]pyridin-2-yl}-N-(quinoline-5-sulfonyl)cyclopropane-1-carboxamide]
Maximum % activity (with co-corrector) [1]: ++ (≥150 and <350)
EC50 [2]: 3 to 10 µM
Emax [3]: 50 to 150%
EC50 [4]: 3 to 10 µM

COC(=O)C1(c2ccc(OC)c(C3(C(=O)NS(=O)(=O)c4cccc5ncccc45)CC3)c2)CC1 [II-30]
EC50 [5]: 3 to 10 µM
Maximum % activity (with co-corrector) (with co-corrector): +++ (≥350)
EC50 [6]: < 3 µM
Emax (without co-corrector): > 150%

O=C(NS(=O)(=O)Cc1ccccc1)C1(c2ccc(F)cc2)CC1 [Example III-112, 1-(4-fluorophenyl)-N-(phenylmethanesulfonyl)cyclopropane-1-carboxamide]
EC50 [5]: > 10 µM
Maximum % activity (with co-corrector) (with co-corrector): + (<150)
EC50 [6]: > 10 µM
Emax (without co-corrector): < 50%

COCCOc1ncc(OC)cc1C1(C(=O)NS(=O)(=O)c2cccc3[nH]ccc23)CC1 [GII-43, N-(1H-indole-4-siilfonyl)-1-[5-methoxy-2-(2-methoxyethoxy)pyridin-3-yl]cyclopropane-1-carboxamide]
Maximum % activity (with co-corrector) [1]: ++ (≥150 and <350)
EC50 [2]: 3 to 10 µM
EC50 (without co-corrector) [3]: ++^a
Emax [3]: 50 to 150%

COc1ccc(C2CCC2)cc1C1(C(=O)NS(=O)(=O)c2cccc3cnn(C)c23)CC1 [Example I-60, 1-(5-cyclobutyl-2-methoxyphenyl)-N-(1-methyl-1H-indazole-7-sulfonyl)cyclopropane-1-carboxamide]
EC50 [5]: < 3 µM
Maximum % activity (with co-corrector) (with co-corrector): +++ (≥350)
EC50 [6]: < 3 µM
Emax (without co-corrector): > 150%

CCc1cnc(OCCOC)c(C2(C(=O)NS(=O)(=O)c3cccc4[nH]ccc34)CC2)c1 [Example GI-109, 1-[5-ethyl-2-(2-methoxyethoxy)pyridin-3-yl]-N-(1H-indole-4-sulfonyl)cyclopropane-1-carboxamide]
Maximum % activity (with co-corrector) [1]: +++ (≥350)
EC50 [2]: < 3 µM
Emax [3]: > 150%
EC50 [4]: 3 to 10 µM

Cc1cnc(N2CCCC2)cc1C1(C(=O)NS(=O)(=O)c2cccc3ncccc23)CC1 [GII-9, 1-[5-methyl-2-(pyrrolidin-1-yl)pyridin-4-yl]-N-(quinoline-5-sulfonyl)cyclopropane-1-carboxamide]
Maximum % activity (with co-corrector) [1]: ++ (≥150 and <350)
EC50 [2]: 3 to 10 µM
Emax [3]: 50 to 150%
EC50 [4]: 3 to 10 µM

COc1ccc(C)cc1C1(C(=O)NS(=O)(=O)c2cccc3[nH]ccc23)CC1 [Example I-49, N-(1H-indole-4-sulfonyl)-1-(2-methoxy-5-methylphenyl)cyclopropane-1-carboxamide]
EC50 [5]: < 3 µM
Maximum % activity (with co-corrector) (with co-corrector): +++ (≥350)
EC50 [6]: < 3 µM
Emax (without co-corrector): > 150%
